Test results from ChEMBL document CHEMBL5385896, “Discovery of PIM-1 kinase inhibitors based on the 2,5-disubstituted 1,3,4-oxadiazole scaffold against prostate cancer: Design, synthesis, in vitro and in vivo cytotoxicity investigation” (Eur J Med Chem, 2023).
The source made the active and inactive calls. No cut-off for these calls is given here.

Assays:
PC-3 [1] = test: cells; assay type: functional, cell-based; settings: Homo sapiens, PC-3, 48 h
Description: Cytotoxicity against human PC-3 cells assessed as inhibition of cell growth incubated for 48 hrs by MTT assay

HepG2 = test: Cytotoxicity against human HepG2 cells assessed as inhibition of cell growth incubated for 48 hrs by MTT assay; assay type: functional, cell-based; settings: HepG2, 48 h
MCF7 = test: cells; assay type: functional, cell-based; settings: Homo sapiens, MCF7, 48 h
Description: Cytotoxicity against human MCF7 cells assessed as inhibition of cell growth incubated for 48 hrs by MTT assay

[2] = Antioxidant activity assessed as DPPH radical scavenging activity incubated for 30 mins; assay type: functional
in vitro = settings: human, RWPE2 cells
Description: Cytotoxicity against human RWPE2 cells assessed as inhibition of cell growth incubated for 48 hrs by MTT assay

[3] = Antioxidant activity assessed as DPPH radical scavenging activity at 100 uM incubated for 30 mins relative to control; assay type: functional
PC-3 [4] = test: Antitumor activity against human PC-3 cells xenografted in mouse assessed as decrease in tumor mass at 5.2 mg/kg,ip administration; assay type: functional; parameters: scale not given: the % may be the effect or the level left
PC-3 [5] = test: Antitumor activity against human PC-3 cells xenografted in mouse assessed as decrease in tumor volume at 5.2 mg/kg,ip administration; assay type: functional
PC-3 [6] = test: Antitumor activity against human PC-3 cells xenografted in mouse assessed as increase in hemoglobin level at 5.2 mg/kg,ip administration (reference value: 2.94 +/- 0.54 g/dl); assay type: functional
PC-3 [7] = test: Antitumor activity against human PC-3 cells xenografted in mouse assessed as increase in RBC count at 5.2 mg/kg,ip administration (reference value: 2.34 +/- 0.57 10^6/microL); assay type: functional
PC-3 [8] = test: Antitumor activity against human PC-3 cells xenografted in mouse assessed as decrease in WBC count at 5.2 mg/kg,ip administration (reference value: 4.98 +/- 0.87 10^3/microL); assay type: functional
PC-3 [9] = test: Antitumor activity against human PC-3 cells xenografted in mouse assessed as decrease in ALT level at 5.2 mg/kg,ip administration (reference value: 81.25 +/- 1.69 I/U); assay type: functional
PC-3 [10] = test: Antitumor activity against human PC-3 cells xenografted in mouse assessed as decrease in AST level at 5.2 mg/kg,ip administration (reference value: 85.38 +/- 1.59 I/U); assay type: functional
PC-3 [11] = test: Antitumor activity against human PC-3 cells xenografted in mouse assessed as increase in total protein level at 5.2 mg/kg,ip administration (reference value: 4.01 +/- 0.27 g/dl); assay type: functional
[12] = target: Serine/threonine-protein kinase pim-1 (Homo sapiens, UniProt P11309); test: Inhibition of PIM-1 (unknown origin)
Serine/threonine-protein kinase pim-1, sequence (P11309 whole entry): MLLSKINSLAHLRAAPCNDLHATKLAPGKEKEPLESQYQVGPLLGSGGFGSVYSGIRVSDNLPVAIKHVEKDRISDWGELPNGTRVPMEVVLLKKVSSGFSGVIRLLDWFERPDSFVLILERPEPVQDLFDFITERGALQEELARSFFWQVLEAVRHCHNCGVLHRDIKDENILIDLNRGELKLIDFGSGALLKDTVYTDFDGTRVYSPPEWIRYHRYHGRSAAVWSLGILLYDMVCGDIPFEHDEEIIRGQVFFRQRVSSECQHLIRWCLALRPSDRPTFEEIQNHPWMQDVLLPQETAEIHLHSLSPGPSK

PC-3 [13] = test: Induction of apoptosis in human PC-3 cells assessed as nuclear condensation at 0.017 uM incubated for 48 hrs by DAPI-staining based confocal microscopic analysis; assay type: functional, cell-based
PC-3 [14] = test: Induction of apoptosis in human PC-3 cells assessed as fold increase in apoptosis at 0.017 uM incubated for 48 hrs by DAPI-staining based confocal microscopic analysis; assay type: functional
PC-3 [15] = test: Induction of apoptosis in human PC-3 cells assessed as early apoptotic cells at 0.017 uM incubated for 48 hrs by Annexin V-FITC and PI staining based flow cytometric analysis (reference value: 0.27 %); assay type: functional
PC-3 [16] = test: Induction of apoptosis in human PC-3 cells assessed as late apoptotic cells at 0.017 uM incubated for 48 hrs by Annexin V-FITC and PI staining based flow cytometric analysis (reference value: 0.18 %); assay type: functional
PC-3 [17] = test: Induction of apoptosis in human PC-3 cells assessed as necrotic cells at 0.017 uM incubated for 48 hrs by Annexin V-FITC and PI staining based flow cytometric analysis (reference value: 0.77 %); assay type: functional
PC-3 [18] = test: Induction of apoptosis in human PC-3 cells at 0.017 uM incubated for 48 hrs by Annexin V-FITC and PI staining based flow cytometric analysis relative to control; assay type: functional
PC-3 [19] = test: Induction of cell cycle arrest in human PC-3 cells assessed as accumulation of cells at PreG1-phase at 0.017 uM incubated for 48 hrs by Annexin V-FITC and PI staining based flow cytometric analysis (reference value: 1.37 %); assay type: functional
PC-3 [20] = test: Induction of cell cycle arrest in human PC-3 cells assessed as accumulation of cells at G1-phase at 0.017 uM incubated for 48 hrs by Annexin V-FITC and PI staining based flow cytometric analysis (reference value: 44.73 %); assay type: functional
PC-3 [21] = test: Induction of cell cycle arrest in human PC-3 cells assessed as accumulation of cells at S-phase at 0.017 uM incubated for 48 hrs by Annexin V-FITC and PI staining based flow cytometric analysis (reference value: 42.08 %); assay type: functional
PC-3 [22] = test: Induction of cell cycle arrest in human PC-3 cells assessed as accumulation of cells at G2/M-phase at 0.017 uM incubated for 48 hrs by Annexin V-FITC and PI staining based flow cytometric analysis (reference value: 13.19 %); assay type: functional
PC-3 [23] = test: Induction of apoptosis in human PC-3 cells assessed as fold change in p53 gene expression at 0.017 uM incubated for 48 hrs by RT-PCR analysis; assay type: functional
PC-3 [24] = test: Induction of apoptosis in human PC-3 cells assessed as fold change in PUMA gene expression at 0.017 uM incubated for 48 hrs by RT-PCR analysis; assay type: functional
PC-3 [25] = test: Induction of apoptosis in human PC-3 cells assessed as fold change in caspase-3 gene expression at 0.017 uM incubated for 48 hrs by RT-PCR analysis; assay type: functional
PC-3 [26] = test: Induction of apoptosis in human PC-3 cells assessed as fold change in caspase-8 gene expression at 0.017 uM incubated for 48 hrs by RT-PCR analysis; assay type: functional
PC-3 [27] = test: Induction of apoptosis in human PC-3 cells assessed as fold change in caspase-9 gene expression at 0.017 uM incubated for 48 hrs by RT-PCR analysis; assay type: functional
PC-3 [28] = test: Induction of apoptosis in human PC-3 cells assessed as fold decrease in BCL-2 gene expression at 0.017 uM incubated for 48 hrs by RT-PCR analysis; assay type: functional
PC-3 [29] = test: Induction of apoptosis in human PC-3 cells assessed as fold decrease in JAK2 gene expression at 0.017 uM incubated for 48 hrs by RT-PCR analysis; assay type: functional
PC-3 [30] = test: Induction of apoptosis in human PC-3 cells assessed as fold decrease in STAT3 gene expression at 0.017 uM incubated for 48 hrs by RT-PCR analysis; assay type: functional
PC-3 [31] = test: Antitumor activity against human PC-3 cells xenografted in mouse assessed as decrease in body weight loss at 4.2 mg/kg,ip administration; assay type: functional, organism-based
PC-3 [32] = test: Antitumor activity against human PC-3 cells xenografted in mouse assessed as decrease in tumor mass at 4.2 mg/kg,ip administration; assay type: functional
PC-3 [33] = test: Antitumor activity against human PC-3 cells xenografted in mouse assessed as decrease in tumor volume at 4.2 mg/kg,ip administration; assay type: functional
PC-3 [34] = test: Antitumor activity against human PC-3 cells xenografted in mouse assessed as tumor growth inhibition at 4.2 mg/kg,ip administration; assay type: functional; settings: read-out: TGI
PC-3 [35] = test: Antitumor activity against human PC-3 cells xenografted in mouse assessed as decrease in liver damage at 5.2 mg/kg,ip administration by; assay type: functional, organism-based
PC-3 [36] = test: Antitumor activity against human PC-3 cells xenografted in mouse assessed as hepatocyte hydropic degeneration at 5.2 mg/kg,ip administration by; assay type: functional, organism-based
PC-3 [37] = test: Antitumor activity against human PC-3 cells xenografted in mouse assessed as hepatocyte balloon degeneration at 5.2 mg/kg,ip administration by; assay type: functional, organism-based
[38] = Toxicity in mouse xenografted with human PC-3 cells assessed as lethal dose at ip administration; assay type: organism-based; settings: in vivo

## COc1ccc(-c2nnc(-c3ccnc(-c4ccc(C(F)(F)F)cc4)c3)o2)cc1
PC-3 [1]
  IC50: 9.31 µM
HepG2
  IC50: 3.25 µM
MCF7
  IC50: 25.7 µM

## Fc1ccc(-c2nnc(-c3ccnc(-c4ccccc4)c3)o2)cc1
PC-3 [1]
  IC50: 2.31 µM
HepG2
  IC50: ≥ 50 µM
MCF7
  IC50: 18.9 µM

## COc1ccc(-c2nnc(-c3ccnc(-c4ccccc4)c3)o2)cc1
PC-3 [1]
  IC50: 0.56 µM
HepG2
  IC50: 7.06 µM
MCF7
  IC50: 9.7 µM
[2]
  Activity: Dose-Dependent Effect
In vitro
  IC50 at 48 h: ≥ 50 µM

## Cc1c(C)c2c(c(C)c1O)CCC(C)(C(=O)O)O2 (configuration not stated)
[3]
  Activity: 96%

## COc1ccc(-c2nnc(-c3ccnc(-c4ccccc4)c3)o2)c(F)c1
PC-3 [1]
  IC50: 2.01 µM
HepG2
  IC50: 13.7 µM
MCF7
  IC50: 20.5 µM

## Fc1cccc(-c2nnc(-c3ccnc(-c4ccccc4)c3)o2)c1
PC-3 [1]
  IC50: 6.21 µM
HepG2
  IC50: 4.31 µM
MCF7
  IC50: 3.8 µM

## Fc1ccc(-c2nnc(-c3ccnc(-c4ccc(C(F)(F)F)cc4)c3)o2)cc1
PC-3 [1]
  IC50: 0.82 µM
HepG2
  IC50: 7.21 µM
MCF7
  IC50: 13.7 µM
[2]
  Activity: Dose-Dependent Effect
In vitro
  IC50 at 48 h: 45.7 µM

## c1ccc(-c2cc(-c3nnc(-c4ccccc4)o3)ccn2)cc1
PC-3 [1]
  IC50: 12.7 µM
HepG2
  IC50: 13.9 µM
MCF7
  IC50: 8.36 µM
In vitro
  IC50 at 48 h: 42.6 µM

## COc1cccc(-c2nnc(-c3ccnc(-c4ccccc4)c3)o2)c1
PC-3 [1]
  IC50: 3.21 µM
HepG2
  IC50: ≥ 50 µM
MCF7
  IC50: 0.75 µM

## COc1cccc(-c2nnc(-c3ccnc(-c4ccc(C(F)(F)F)cc4)c3)o2)c1
PC-3 [1]
  IC50: 13.2 µM
HepG2
  IC50: ≥ 50 µM
MCF7
  IC50: 12.4 µM

## FC(F)(F)c1ccc(-c2cc(-c3nnc(-c4cccc(Cl)c4)o3)ccn2)cc1
PC-3 [1]
  IC50: ≥ 50 µM
HepG2
  IC50: 3.24 µM
MCF7
  IC50: 10 µM

## Fc1cccc(-c2nnc(-c3ccnc(-c4ccc(C(F)(F)F)cc4)c3)o2)c1
PC-3 [1]
  IC50: 0.76 µM
HepG2
  IC50: 6.02 µM
MCF7
  IC50: 70.1 µM
[2]
  Activity: Dose-Dependent Effect
In vitro
  IC50 at 48 h: 31.9 µM

## FC(F)(F)c1ccc(-c2cc(-c3nnc(-c4ccccc4)o3)ccn2)cc1
PC-3 [1]
  IC50: ≥ 50 µM
HepG2
  IC50: 4.03 µM
MCF7
  IC50: 9.66 µM

## CN[C@@H]1C[C@H]2O[C@@](C)([C@@H]1OC)n1c3ccccc3c3c4c(c5c6ccccc6n2c5c31)C(=O)NC4 [STAUROSPORINE]
HepG2
  IC50: 5.07 µM
PC-3 [4]
  Activity: 20%
PC-3 [5]
  Activity: 52.9 mm3
PC-3 [6]
  Activity: 6.52 g/dL
PC-3 [7]
  Activity: 4.95 10^6 /uL
PC-3 [8]
  Activity: 2.81 10^3 /uL
PC-3 [9]
  Activity: 50.4 U/L
PC-3 [10]
  Activity: 47.38 U/L
PC-3 [11]
  Activity: 5.39 g/dL

## Clc1cccc(-c2nnc(-c3ccnc(-c4ccccc4)c3)o2)c1
PC-3 [1]
  IC50: 0.016 µM
HepG2
  IC50: 0.13 µM
MCF7
  IC50: 5.37 µM
[12]
  IC50: 17 µM
PC-3 [13]
  Activity: Active
PC-3 [14]
  fold change (FC): 37.2
PC-3 [15]
  Activity: 2.09%
PC-3 [16]
  Activity: 17.35%
PC-3 [17]
  Activity: 11.9%
PC-3 [18]
  Activity: 19.44%
PC-3 [19]
  Activity: 26.44%
PC-3 [20]
  Activity: 47.36%
PC-3 [21]
  Activity: 45.18%
PC-3 [22]
  Activity: 7.46%
PC-3 [23]
  fold change (FC): 6.58
PC-3 [24]
  fold change (FC): 3.85
PC-3 [25]
  fold change (FC): 6.98
PC-3 [26]
  fold change (FC): 3.25
PC-3 [27]
  fold change (FC): 8.67
PC-3 [28]
  fold change (FC): 0.45
PC-3 [29]
  fold change (FC): 0.52
PC-3 [30]
  fold change (FC): 0.48
[2]
  Activity: Dose-Dependent Effect
[3]
  Activity: 94%
PC-3 [31]
  Activity: Active
PC-3 [32]
  Activity: 89.4 mg
PC-3 [33]
  Activity: 34.1 mm3
PC-3 [34]
  inhibition in vivo at 4.2 mg/kg: 64.2%
PC-3 [6]
  Activity: 6.89 g/dL
PC-3 [7]
  Activity: 4.02 10^6 /uL
PC-3 [8]
  Activity: 2.87 10^3 /uL
PC-3 [9]
  Activity: 49.8 U/L
PC-3 [10]
  Activity: 48.9 U/L
PC-3 [11]
  Activity: 5.74 g/dL
PC-3 [35]
  Activity: Active
PC-3 [36]
  Activity: Active
PC-3 [37]
  Activity: Active
[38]
  LD50: 4.2 mg/kg
In vitro
  IC50 at 48 h: 35.4 µM
